Results taken from paper PMC6045618, “Novel natural killer cell-mediated cancer immunotherapeutic activity of anisomycin against hepatocellular carcinoma cells” (Scientific Reports, 2018).

Columns and labels:
Huh7 cells [1] = assay: Annexin V / 7-ADD apoptosis flow cytometry, Huh7; assay type: cell-based; conditions: 48 h
Procedure: (§1) To analyse apoptotic cells, we stained cells with anti-human CD56-allophycocyanin monoclonal antibodies, 7ADD, and Annexin V (BioLegend, San Diego, CA, USA) following the protocol provided by the manufacturer. Briefly, we stained cells with anti-human CD56-allophycocyanin monoclonal antibodies on ice for 10 min, washed cells with an appropriate volume of chilled Annexin V binding buffer (BioLegend), and resuspended cells in chilled Annexin V binding buffer (BioLegend) in the presence of Annexin V and 7ADD. The cells were incubated on ice for 30 min, washed with chilled Annexin V binding buffer, and analysed. Staining data were collected using a FACSCanto II Cytometer (BD Biosciences).

Huh7 cells [2] = assay: EZ-Cytox Enhanced cell viability assay, Huh7; assay type: cell-based; conditions: 48 h exposure, read-out: IC50, cell cytotoxicity / proliferation inhibition
Procedure: (§2) HepG2 cells were purchased from the American Type Culture Collection (ATCC, Manassas, VA, USA), and Huh7 cells and SNU449 cells were purchased from the Korean Cell Line Bank (Seoul, Korea). Cells were cultured according to the suppliers’ instructions. HepG2 cells were cultured in Eagle’s minimum essential medium (ATCC) containing 10% FBS (Life Technologies), 2 mM L-glutamine, and penicillin-streptomycin (Life Technologies) at 37 °C in 5% CO2. Huh7 and SNU449 cells were cultured in RPMI1640 (Life Technologies) containing 10% FBS (Life Technologies), 2 mM L-glutamine, and penicillin-streptomycin (Life Technologies) at 37 °C in 5% CO2. Anisomycin was purchased from Sigma-Aldrich (St. Louis, MO, USA) and dissolved at a concentration of 20 mg/mL in 100% DMSO as a stock solution. The stock solution was stored at −20 °C and diluted in medium before each experiment. […]
(§3) Cell proliferation was assessed using an EZ-Cytox Enhanced cell viability assay kit from ITSBIO (Seoul, Republic of Korea). […] At the end of the incubation, the absorbance in each well was measured at 450 nm using a microplate reader. The relative cell viability (%) was calculated using the equation OD^T/OD^C × 100% (where OD^T represents the absorbance of the treatment group, and OD^c represents the absorbance of the control group). […]

SNU449 cells [3] = assay: Annexin V / 7-ADD apoptosis flow cytometry, SNU449; assay type: cell-based; conditions: 48 h
Procedure: as §1

HepG2 carcinoma = assay: HepG2 tumour xenograft in NOD-SCID mice with or without human primary NK cells; assay type: in vivo, mouse; conditions: 10 mg/kg i.p.
Source text: NOD.CB17-Prkdc^scid/NCrCrl mice were purchased from Charles River Laboratories, Inc. (Wilmington, MA, USA). We used 6-8-week-old female mice in all experiments; these mice were housed in a pathogen-free animal facility. All animal experiments were approved by the Institutional Animal Use and Care Committee of the Korea Research Institute of Bioscience and Biotechnology and performed in accordance with the Guide for the Care and Use of Laboratory Animals published by the US National Institutes of Health.
Six-week-old female NOD.CB17-Prkdc^scid/NCrCrl mice were purchased from Charles River Laboratories, Inc. Xenograft models were established by subcutaneous injection of 1 × 10^6 HepG2 cells into the right flanks of the mice. Five days after inoculation, the mice were randomly separated into groups of four. Anisomycin (10 mg/kg) was administered from day 0 to 5 and from day 15 to 20 after initiation of anisomycin treatment via the intraperitoneal (i.p) route. NK cells (5 × 10^6 cells/mouse) were transferred into mice two times on days 6 and 11 during the treatment pause period. Tumours were measured every 3 days using callipers, and their volumes were calculated according to the following formula: volume (mm^3) = (d^2 × D)/2, where d and D represent the shortest and longest tumour diameters, respectively.

HepG2 cells [4] = assay: Annexin V / 7-ADD apoptosis flow cytometry, HepG2; assay type: cell-based; conditions: 48 h
Procedure: as §1

HepG2 cells [5] = assay: EZ-Cytox Enhanced cell viability assay, HepG2; assay type: cell-based; conditions: 48 h exposure, read-out: IC50, cell cytotoxicity / proliferation inhibition
Procedure: as §2, §3

SNU449 cells [6] = assay: EZ-Cytox Enhanced cell viability assay, SNU449; assay type: cell-based; conditions: 48 h exposure, read-out: IC50, cell cytotoxicity / proliferation inhibition
Procedure: as §2, §3

[7] = tested on: HepG2, Huh7, and SNU449 cells; assay: Light microscopy of cell density; assay type: cell-based; conditions: 0.2 μM, 2 days
Procedure: HepG2 cells were purchased from the American Type Culture Collection (ATCC, Manassas, VA, USA), and Huh7 cells and SNU449 cells were purchased from the Korean Cell Line Bank (Seoul, Korea). Cells were cultured according to the suppliers’ instructions. HepG2 cells were cultured in Eagle’s minimum essential medium (ATCC) containing 10% FBS (Life Technologies), 2 mM L-glutamine, and penicillin-streptomycin (Life Technologies) at 37 °C in 5% CO2. Huh7 and SNU449 cells were cultured in RPMI1640 (Life Technologies) containing 10% FBS (Life Technologies), 2 mM L-glutamine, and penicillin-streptomycin (Life Technologies) at 37 °C in 5% CO2. Anisomycin was purchased from Sigma-Aldrich (St. Louis, MO, USA) and dissolved at a concentration of 20 mg/mL in 100% DMSO as a stock solution. The stock solution was stored at −20 °C and diluted in medium before each experiment. […] Antibodies against caspase3, PARP, and β-actin were purchased from Cell Signaling Technology (Danvers, MA, USA).

[8] = tested on: MHC-I molecules (HLA-A, -B, and -C); assay: Flow cytometry of MHC-I (HLA-A, -B, -C) on HCC cells; assay type: cell-based; conditions: 0.2 μM 48 h, HepG2, SNU449, Huh7 cells
HepG2 cells [9] = assay: Apoptosis of anisomycin-pre-treated HepG2 cells cocultured with NK cells (flow cytometry); assay type: cell-based, human; conditions: HepG2 pre-treated 0.2 μM 48 h, then NK cells 4 h, CD56-negative gate
Source text: Peripheral blood from healthy donors was obtained from the Red Cross Blood Center. We followed the guidelines of the Red Cross, and all methods and protocols involving the use of human peripheral blood were approved by the Institutional Review Board of the Red Cross. Based on the Red Cross guidelines, informed consent for study participation was obtained, and donor information was not provided. NK cells were isolated from whole blood to more than 95% purity by negative selection using a RosetteSep Human NK Cell Enrichment Cocktail (StemCell Technologies, Vancouver, Canada) according to the manufacturer’s protocol. The isolated NK cells were washed in HBSS plus 4% foetal bovine serum (FBS; Life Technologies, Carlsbad, CA, USA) and resuspended in MEM-α (Life Technologies) containing 20% FBS (Life Technologies) and penicillin-streptomycin (Life Technologies) at 37 °C in 5% CO2.
To analyse apoptotic cells, we stained cells with anti-human CD56-allophycocyanin monoclonal antibodies, 7ADD, and Annexin V (BioLegend, San Diego, CA, USA) following the protocol provided by the manufacturer. […] The cells were incubated on ice for 30 min, washed with chilled Annexin V binding buffer, and analysed. […]

CD58 = assay: Western blot of CD58 in HCC cells; assay type: cell-based; conditions: 0.2 μM, HepG2, Huh7, SNU449 cells
[10] = tested on: cleaved caspase-3, cleaved PARP; assay: Immunoblot of cleaved caspase-3 and cleaved PARP in sorted HepG2 cells; assay type: cell-based; conditions: HepG2, 0.2 μM 48 h
Procedure: HepG2 cells were cultured in the presence or absence of 0.2 µM anisomycin for 2 days and harvested for cell counts. Then, 1 × 10^7 HepG2 cells were cocultured with 1 × 10^7 NK cells for 2 h and harvested by centrifugation at 1,000 rpm for 5 min. Cells were stained with anti-human CD56 monoclonal antibodies (BioLegend), washed, and resuspended in PBS containing HBSS supplemented with 4% FBS (Gibco). CD56-negative HepG2 cells were isolated to nearly 100% purity using an Aria cytometer (BD Biosciences).
Cells were suspended in modified RIPA lysis buffer (150 mM NaCl, 1 mM EDTA, 1% Triton X-100, 1% NP-40, 0.5% sodium deoxycholate, 0.1% sodium dodecyl sulphate [SDS], and 50 mM Tris-HCl [pH 7.4]) containing a protease inhibitor cocktail (Roche, Mannheim, Germany) and phosphatase inhibitors (1 mM sodium fluoride and 2 mM sodium orthovanadate) on ice for 30 min and centrifuged at 15,000 × g for 30 min to collect whole-cell lysates. Proteins (10–20 µg) were then separated by SDS-polyacrylamide gel electrophoresis on 8‒12% gels and transferred to polyvinylidene difluoride membranes (Millipore, Bedford, MA, USA). Western blotting was performed with primary antibodies against caspase3, PARP, and β-actin (Cell Signaling Technology) and peroxidase-conjugated anti-mouse or anti-rabbit secondary antibodies. Proteins were visualized with Enhanced Chemiluminescence Plus reagents (Amersham Biosciences, Piscataway, NJ, USA).

`COc1ccc(C[C@H]2NC[C@H](O)[C@H]2OC(C)=O)cc1` [anisomycin] was tested, and the “Annexin V and 7-ADD double-positive cells (apoptotic cells)” value (Huh7 cells [1]; Huh7, 0.1 μM) was 4.59%, the “Annexin V and 7-ADD double-positive cells (apoptotic cells)” value (Huh7 cells [1]; Huh7, 0.2 μM) was 6.85% and the IC50 (Huh7 cells [2]) was 118 nM. The “Annexin V and 7-ADD double-positive cells (apoptotic cells)” value (SNU449 cells [3]; SNU449, 0.1 μM) was 2.24%, the “Annexin V and 7-ADD double-positive cells (apoptotic cells)” value (SNU449 cells [3]; SNU449, 0.2 μM) was 4.94% and the “Tumour suppression in the presence of human primary NK cells” value (HepG2 carcinoma; days 0 to 5 and 15 to 20, NK cells 5 × 10^6 cells/mouse on days 6 and 11) was “synergistically enhanced”. For the same molecule, the “Body weight loss and abnormal behaviours of treated mice” value (HepG2 carcinoma; days 0 to 5 and 15 to 20, NOD-SCID mice) was “did not show significant body weight loss or any abnormal behaviours”, the “HepG2 tumour size in mice” value (HepG2 carcinoma; days 0 to 5 and 15 to 20, NOD-SCID mice, without NK cells) was “significantly reduced HepG2 tumour size” and the “Annexin V and 7-ADD double-positive cells (apoptotic cells)” value (HepG2 cells [4]; HepG2, 0.1 μM) was 1.23%. For the same molecule, the “Annexin V and 7-ADD double-positive cells (apoptotic cells)” value (HepG2 cells [4]; HepG2, 0.2 μM) was 2.81%, the IC50 (HepG2 cells [5]) was 82.2 nM and the IC50 (SNU449 cells [6]) was 138 nM. The “Cell densities observed by light microscopy” value [7] was “reduced the cell densities”, the “MHC-I molecules (HLA-A, -B, -C) at the protein level” value [8] was “significantly downregulated” and the “Annexin V and 7ADD double-positive cells (apoptotic cells) after coculture with NK cells” value (HepG2 cells [9]) was 14.00%. For the same molecule, the “Expression of CD58 (western blot)” value (CD58) was “increased the expression of CD58 in all three HCC cell lines”, the “Cleaved PARP” value ([10]; anisomycin and NK cells) was “substantially increased” and the “Cleaved caspase-3 protein after exposure to NK cells” value ([10]; then NK cells 2 h) was “synergistically increased”. The “Level of the cleaved form of caspase-3” value ([10]; with or without NK cell treatment) was “significantly increased”.
